{"source": "patent US20160038392A1", "about": "“COMPOSITIONS COMPRISING PAULOWNIN AND/OR PAULOWNIA EXTRACTS AND USES THEREOF” (Johnson & Johnson Consumer Inc., priority 2010, published 2016)", "key": {"[1]": {"system": "NF-κB promoter activity in H9c2 cells", "test": "NF-κB Inhibition Assay (NF-κB promoter luciferase, TNFα stimulated)", "type": "cell-based", "details": "Rattus norvegicus", "protocol": "The NF-κB promoter assay is conducted as follows: rat cardiac myoblasts H9c2 cells were purchased from ATCC (Manassas, Va.). Cultures were maintained in Dulbecco's modified Eagle's medium (DMEM, Invitrogen Life Technologies, Carlsbad, Calif.) supplemented with 10% fetal bovine serum, 100 units/ml penicillin, and 50 μg/ml streptomycin (Invitrogen life technologies, Carlsbad, Calif.). Typically, 1×10^4 cells grown in 96-well plates were transiently transfected with 0.45 μg total DNA per well using Lipofectamine 2000 (Invitrogen life technologies, Carlsbad, Calif.). In all transfections, a construct with the thymidine kinase promoter and the Renilla luciferase reporter gene (pRL-TK, Promega, Madison, Wis.) was included as an internal control in addition to the luciferase promoter. One day after transfection, cells were treated with the extracts at indicated concentrations and stimulated with 100 ng/mL of Tumor Necrosis Factor-a (TNFα, Sigma-Aldrich, St Louis, Mo.) for approximately 24 hours before they were lysed for luciferase assays, using Dual-Luciferase Reporter System from Promega (Madison, Wis.), following manufacturer's protocol. Briefly, the firefly luciferase activity was measured first (representing NF-κB promoter activity), followed by the renilla luciferase (internal control), using luminometer LMAX, from Molecular Devices (Sunnyvale, Calif.). […]"}, "[2]": {"system": "MatTek's MelanoDerm skin epidermal equivalent tissues (MEL-300-B; NHEK and NHM)", "test": "Skin Epidermal Equivalents Model as a Skin Lightening Test (ΔL)", "type": "cell-based, human", "details": "topical daily 8 days, measured day 9", "source_text": "Skin epidermal equivalent tissues are available commercially from MatTek's MelanoDerm™ System and were used for the following tests. MatTek's MelanoDerm™ System consists of normal, human-derived epidermal keratinocytes (NHEK) and melanocytes (NHM) which have been cultured to form a multilayered, highly differentiated model of the human epidermis. Specifically, MEL-300-B tissues, each 9 mm in diameter were used in the following tests.\nThe test materials prepared in an appropriate vehicle and tested concentrations were applied topically to the skin model daily and the experiment lasted for 8 days. Measurement was taken on day 9.\nThe macroscopic and microscopic visual tissue darkening end points were measured by taking pictures with a digital camera. The Degree of Lightness for each tissue (L-Value) was measured using a spectrophotometer (Konica Minolta CM-2600d). The ΔL (degree of lightness as compared to control) for each test sample is calculated as per following formula:\nΔL=L-value of treated sample−L-value of control sample."}, "[3]": {"system": "skin epidermal tissues (MelanoDerm)", "test": "Cell Viability Test (MTT) on skin epidermal tissues", "type": "cell-based, human", "details": "at tested concentrations; ≧30% reduction of cell viability = significant", "protocol": "Cell Viability of the tissue during experiment was evaluated using the MTT assay described as follows. The MTT Tissue Viability Assay is a colorimetric assay system that measures the reduction of a yellow Methylthiazolyldiphenyl-tetrazolium bromide (MTT) into an insoluble purple product by the mitochondria of viable cells. The skin epidermal tissues used previously to determine degree of lightness for each test material and of untreated tissues were used to determine percent viable cells remaining at the end of the experiment. The skin epidermal tissues after degree of lightness test were incubated with MTT reagent for 3 h. After incubation extraction buffer is added to lyse the cells and allowed to continue overnight. Samples are read using a plate reader at a wavelength of 570 nm and compared against untreated control and expressed in % Cell Viability as of control. A reduction of ≧30% cell viability as of control consider as a significant indication of cell cytotoxicity caused by the test materials. The amount of purple color produced is directly proportional to the number of viable cells.\nCytotoxicity potential was determined by MTT assay for all extracts and calculated as % reduction of cell viability as compared to control, wherein >30% reduction of cell viability constitute significant cytotoxicity issues."}}, "data": [{"compound": "OC12COC(c3ccc4c(c3)OCO4)C1COC2c1ccc2c(c1)OCO2", "note": "(centres unmarked) [Paulownin]", "values": [{"measurement": "IC50", "setting": "[1]", "value": 148, "unit": "µg/mL"}, {"measurement": "Degree of Lightness (ΔL)", "setting": "[2]; Conc. 0.5%", "value": 0.69}, {"measurement": "Degree of Lightness (ΔL)", "setting": "[2]; Conc. 1%", "value": 1.52}, {"measurement": "Degree of Lightness (ΔL)", "setting": "[2]; Conc. 2%", "value": 2.79}, {"measurement": "Cytotoxicity potential by MTT assay", "setting": "[3]", "value": "did not show any significant cytotoxicity"}]}]}
